Data set [1] has as its target T1, recombinant human Orai1 and recombinant human STIM1 (Homo sapiens, UniProt Q96D31).
T1 construct: expressed in transfected cells; host or cells: human embryonic kidney 293 cells
In words: Ca^2+ signaling assay in HEK293 cells transfected with Orai1 and STIM1 (Fura-2). Type of data set: cell-based. The following applies: HEK293 transfected with Orai1/STIM1, 10 μM Compound 1, single cell Fura-2 fluorescence. As to the method: FIG. 8 depicts Compound 1 as a modulator of store-operated Ca^2+ (SOC) channels. The white rectangle represents a 2 mM external Ca^2+ concentration solution, the hashed rectangle represents a 0 mM external Ca2+ concentration solution, the slashed rectangle represents a 0 mM external Ca^2+ concentration solution with 2 μM thapsigargin, the grey rectangle represents 10 μM Compound 1 in a 2 mM external Ca^2+ concentration solution, and the black rectangle represents […] 2-aminoethoxydiphenyl borate in a 2 mM external Ca^2+ concentration solution. Cell #1 and Cell #2 represent two separate human embryonic kidney 293 cells successfully transfected with recombinant human Orai1 and recombinant human STIM1.
Compound 1 was screened for inhibition of Ca^2+ signaling by examining the intracellular Ca^2+ response in the presence of Compound 1 (FIG. 8). First, human embryonic kidney 293 cells were transfected by lipofectamine with recombinant human Orai1 and recombinant human STIM1. Recombinant human Orai1 was genetically tagged with enhanced green fluorescent protein to label successfully transfected cells. Cells were plated on coverslips and loaded with 2 μM of the Ca^2+ indicator dye, Fura-2, to allow for detection of intracellular Ca^2+ concentration. Cellular fluorescence was determined by alternating fluorescent excitation at 340 and 380 nanometers.

Data set [2] in a line: In vivo pharmacokinetics in rat. Further details: species or system Sprague Dawley rat. As to the method: Compound 1 was administered p.o. (▪) or i.v. (•) to a nine week old male Sprague Dawley rat (FIG. 6). For survival blood collection, 250-350 μL blood samples were collected via jugular vein (JUGVEIN) cannula at proposed time points per study protocol and recorded. Blood was collected pre-dose and at 15 & 30 min, 1, 2, 4, 12, 24 & 48 hr after Compound 1 administration. Blood was collected into lithium heparin tubes for plasma collection. Calibration standards and study samples were processed for LC/MS/MS analysis by precipitating 40 μL of each sample with two volumes of ice cold Internal Standard Solution (acetonitrile containing 50 ng/mL of dextromethorphan, 5 ng/mL diphenhydramine and 125 ng/mL diclofenac). The precipitated samples were centrifuged at 6100 g for 30 minutes. Following centrifugation, an aliquot of each supernatant was transferred to an autosampler plate and diluted with an equal volume of 0.2% formic acid in water. Processed study samples were analyzed using LC/MS/MS.

The nature of data set [3]: Concentrations of Compound 1 in mouse plasma and brain after s.c. administration. To be noted: C57/BL6 mice. Type of data set: in vivo. As to the method: Compound 1 was administered s.c. to C57/BL6 mice and plasma and brain samples were processed and analyzed using standard bioanalytical protocols. Three mice were sacrificed at time points: 15 min, 1 hr and 4 hr. Blood was collected into lithium heparin tubes for plasma collection. Brain samples were homogenized prior to extraction using a FastPrep-24 tissue homogenizer. Plasma and brain homogenates were extracted by protein precipitation with acetonitrile containing verapamil as internal standard (IS). After vortexing for 10 min, samples were transferred to a 96 well filter plate and filtered using a centrifuge. Filtrates were analyzed by LC/MS/MS. The compounds were quantified with software using calibration curves. Compound 1 plasma (▪) and brain (•) concentrations are presented.

Data set [4] deals with experimental autoimmune encephalomyelitis. Description: in vivo. The class given is in vivo, C57/Bl6 mice.
Another data set can be described thus: in vivo. Type of data set: in vivo, C57/Bl6 mice. To be noted: C57/Bl6, mouse, in vivo, ip, 5 mg/kg.
Another data set deals with MDR1. Description: MDCK-MDR1 permeability assay. Type of data set: in vitro ADME, canine. The following applies: dog. The method, then:
Compound 1 was evaluated for permeability across polarized Madin-Darby canine kidney-multidrug resistance protein 1 (MDCK-MDR1) epithelial monolayers. MDCK-MDR1 cells grown in tissue culture flasks were trypsinized, suspended in medium, and the suspensions were applied to wells of a Millipore 96 well Caco-2 plate (FIG. 7). The cells were allowed to grow and differentiate for five days and confluence was confirmed. For Apical to Basolateral (A→B) permeability, Compound 1 was added to the apical (A) side and amount of permeation is determined on the basolateral (B) side; for Basolateral to Apical (B→A) permeability, the Compound 1 was added to the B side and the amount of permeation was determined on the A side and analyzed by LC/MS/MS.

Data set [5] deals with primary human T cells. In words: Cell viability assay, primary human T cells. Type of data set: cell-based. To be noted: primary human T cells from a healthy donor, activated, 72 hours. The method, then:
(§1) Compound 2 was screened for inhibition of cancer cell survival by quantifying cellular death in the presence of Compound 2 (FIG. 4). Human Jurkat T cells (▪), an immortalized line of human acute T cell lymphoblastic leukemia; Ramos B cells (•), an immortalized line of human Burkitt's lymphoma; and primary human T cells (▴) isolated from the peripheral blood of a healthy, consenting donor were cultured in the presence Compound 2 to test for cellular viability and cell death. Cells were cultured in standard culture conditions, and primary human T cells were also activated with 4 μg/mL immobilized anti-CD3 (clone: OKT3) and 1 μg/mL soluble anti-CD28 (clone: CD28.2) antibodies and 0.2 ng/mL recombinant human IL-2. Cell viability was assayed through flow cytometric analysis of cellular light scatter following 72 hours for primary human or 120 hours for Jurkat and Ramos in standard culture conditions. Viable cell percentage was analyzed as the percent decrease of viable cells compared to a control well with no Compound 2 using a standard flow cytometry lymphocyte analysis gate of forward and side scatter.

The test system of data set [6] is primary human T cells. Description: Primary human T cell proliferation assay (CFSE dilution). The following applies: 72 hours. Type of data set: cell-based. As to the method: Compound 2 was screened for inhibition of primary human T cell proliferation by quantifying cellular divisions in the presence of Compound 2 (FIG. 3). First, a 96-well plate was coated with 4 μg/mL anti-CD3 antibody (clone: OKT3) in phosphate buffered saline overnight at 4 degrees Celsius. Primary human T cells were then isolated from the peripheral blood of a healthy, consenting donor using an antibody-based human T cell enrichment protocol. Human T cells were then stained with 1.75 μM of carboxyfluorescein succinimidyl ester, to allow for detection of cellular proliferation. Human T cells were then cultured with Compound 2 and activated with immobilized anti-CD3 and 1 μg/mL soluble anti-CD28 (clone: CD28.2) antibodies and 0.2 ng/mL recombinant human IL-2 to induce cellular proliferation through the NFAT and NF-κB transcription factor pathways. Proliferation was assayed through flow cytometric analysis of carboxyfluorescein succinimidyl ester dilution after 72 hours in standard culture conditions. Maximal proliferation occurred with a 3.9 fold increase in activation index compared to an unstimulated control.

The test system of the next data set is Ramos B cells. In words: Cancer cell viability assay, Ramos. To be noted: 120 hours, flow cytometric light scatter. Type of data set: cell-based, human. The method, then:
as §1
For orientation: Flow cytometry measures light scatter and fluorescence of single cells or particles in a stream.

The subject of the next data set is Human Jurkat T cells. In words: Cancer cell viability assay, Jurkat. Type of data set: cell-based. To be noted: 120 hours, flow cytometric light scatter. The method, then:
as §1

The test system of data set [7] is Ca^2+ influx in human Jurkat T cells. Description: Ca^2+ signaling assay in Jurkat T cells activated with PHA-P (Fluo-4, flow cytometer). Type of data set: cell-based. The method, then: (§2) Compound 2 was screened for inhibition of Ca^2+ signaling by examining the intracellular Ca^2+ response in the presence of Compound 2 (FIG. 2). First, the human Jurkat T cells, an immortalized line of human acute T cell lymphoblastic leukemia, were loaded with the 2 μM of the Ca^2+ indicator dye, Fluo-4, to allow for detection of Ca^2+ influx. Jurkat cells were then cultured with Compound 2 and activated with Phytohemagglutinin PHA-P to induce Ca^2+ influx. Immediately after activation, Ca^2+ influx was determined by measuring Jurkat fluorescence using a flow cytometer. Maximal Ca^2+ influx occurred with a 2.9 fold increase in mean Fluo-4 fluorescence intensity compared to an unstimulated control.

Data set [8] has as its system Ca^2+ influx in murine cerebellum CRL-2540 cells (mouse microglia). Description: Ca^2+ signaling assay in microglia activated with thapsigargin (Fluo-4). The class given is cell-based. The method, then: as §2, with “5).” for “2).”, “murine cerebellum CRL-2540” for “human Jurkat T”, “mouse microglia,” for “human acute T cell lymphoblastic leukemia,”, “CRL-2540” for “Jurkat”, “2 μM thapsigargin” for “Phytohemagglutinin PHA-P”, “0.52” for “2.9”

[9] abbreviates: male, Sprague Dawley, plasma, iv, 10000 ug/kg.
[10] abbreviates: male, Sprague Dawley, plasma, po, 10000 ug/kg.

Two compounds from patent US10213412B2, “Modulators of CA2+ release-activated CA2+ (CRAC) channels and pharmaceutical uses thereof” (Vivreon Biosciences, LLC, priority 2015, dated 2019) can be followed below.

In general, AUC(0-inf) refers to total exposure, with the tail of the curve extrapolated. A lower AUC(0-inf) goes with less exposure. As usually defined, the AUC(0-t) is exposure summed from dosing to a finite time, without extrapolation to infinity. What is called Cmax is the maximum level reached in the sampled fluid or tissue. Usually MRT inf stands for a mean duration of stay, worked out from the concentration-time curve. In general, Tmax refers to the time at which the peak concentration occurs. One may read the clearance as the volume of plasma or blood freed of the substance per unit of time. Read a low clearance as inefficient removal. Broadly, the efflux ratio is a quotient of directional permeabilities that is used to spot active efflux. By Papp A→B is commonly meant how fast a substance crosses the layer from the apical side. Higher therefore signals ready permeation. The term Papp B→A denotes how fast a substance crosses the layer from the basolateral side.

Where two headings read alike, the source gives them in different places.

T1 sequence (Q96D31 whole entry): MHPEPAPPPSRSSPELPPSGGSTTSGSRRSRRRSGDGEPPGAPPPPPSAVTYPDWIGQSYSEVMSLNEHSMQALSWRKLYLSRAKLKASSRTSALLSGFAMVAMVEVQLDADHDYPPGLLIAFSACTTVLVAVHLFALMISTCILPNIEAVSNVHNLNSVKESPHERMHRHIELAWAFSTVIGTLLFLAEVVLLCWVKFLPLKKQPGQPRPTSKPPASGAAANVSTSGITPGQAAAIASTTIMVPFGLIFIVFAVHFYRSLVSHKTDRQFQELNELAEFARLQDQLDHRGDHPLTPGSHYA

`CC(C)(C)c1cc(CCC(=O)c2ccc[nH]2)cc(C(C)(C)C)c1O` [Compound 1, 3-(3,5-di-tert-butyl-4-hydroxyphenyl)-1-(1H-pyrrol-2-yl)propan-1-one]: the “Modulation of store-operated Ca^2+ (SOC) channels” value in [1] was “modulates store-operated Ca^2+ (SOC) channels”. Moreover, in data set [2] (setting [9]), the AUC(0-inf) stood at 706 ng·h/mL, the AUC(0-t) turned out to be 694 ng·h/mL, the peak level (Cmax) was 837 ng/mL and the MRT inf amounted to 1.9 h. Moreover, in [2] (setting [9]), the Tmax stood at 0.25 h and the clearance was 236 mL/min/kg. The half-life in [2] (male, Sprague Dawley, plasma, iv, 10000 ug/kg, i.v., 10000 μg/kg, read-out: Terminal t½ (converted)) is 2.64 h. In [2] (male, Sprague Dawley, plasma, iv, 10000 ug/kg, i.v., 10000 μg/kg, read-out: VSS), the Vd worked out at 26.9 L/kg. Also, in [2] (setting [10]), the AUC(0-inf) stood at 747 ng·h/mL, the AUC(0-t) amounted to 679 ng·h/mL, the Cmax is 126 ng/mL and the Tmax worked out at 2 h. Moreover, the bioavailability in data set [2] (setting [10]) turned out to be 106%. Besides, the half-life in data set [2] (male, Sprague Dawley, plasma, po, 10000 ug/kg, p.o., 10000 μg/kg, read-out: T½ (converted)) was 3.27 h. Also, the “Animal body weight and clinical observations” value in [2] (p.o. or i.v., 10000 μg/kg) is “appeared normal”. Besides, the “Animal body weight and clinical observations” value in data set [3] is given as “appeared normal”. Moreover, the “Recovery of animals in the EAE model” value in data set [4] (5 mg/kg i.p. daily starting on day −1) is recorded as “enhanced recovery”. Further, in data set [4] (5 mg/kg i.p. daily, p<0.05), the “Neuroprotection (clinical score) compared to vehicle-treated mice” value is listed as “significant neuroprotection”. The compound further showed a concentration at 1 h in the data set “in vivo” (Compound level in the brain) of 38 ± 4 nM. Besides, the concentration at 1 h in “in vivo” (Compound level in the plasma) turned out to be 23.3 ± 3.1 nM. Besides, the efflux ratio in the data set with MDR1 came to 1.6. This compound yielded a Papp A→B in the data set on MDR1 (Apical to Basolateral) of 1 ×10⁻⁶ cm/s. For the same compound, the Papp B→A in the data set with MDR1 (Basolateral to Apical) amounted to 1.6 ×10⁻⁶ cm/s.
For the compound `CC(C)(C)c1cc(CCC(=O)c2[nH]c(Cl)c(Cl)c2Cl)cc(C(C)(C)C)c1O` [Compound 2, 3-(3,5-di-tert-butyl-4-hydroxyphenyl)-1-(3,4,5-trichloro-1H-pyrrol-2-yl)propan-1-one], the “Cell viability in the presence of compound” value is listed as “did not decrease” in the data set on primary human T cells [5], “decreased” in the data set with Ramos B cells and “decreased” in the data set on Human Jurkat T cells. For the same compound, the “Maximal inhibition of proliferation, fold increase in activation index compared to an unstimulated control” value with primary human T cells [6] (maximal proliferation 3.9 fold) amounted to 0.91 fold. The IC50 worked out at 0.671 µM in the data set on primary human T cells [6] (Homo sapiens, T-cell, anti-CD3/anti-CD28/IL-2 activation, read-out: IC50 of inhibition of primary human T cell proliferation); 3.78 µM in [7] (Homo sapiens, PHA-P activation, Fluo-4 fluorescence, read-out: IC50 of inhibition of Ca^2+ influx); 10.9 µM in data set [8] (Mus musculus, CRL-2540 microglia, 2 μM thapsigargin, Fluo-4, read-out: IC50 of inhibition of Ca^2+ influx). The “Maximal inhibition of Ca^2+ influx, fold increase compared to an unstimulated control” value amounted to 0.35 fold in [7] (PHA-P, maximal influx 2.9 fold) and 0.19 fold in data set [8] (CRL-2540, thapsigargin, maximal influx 0.52 fold).
